Here are results for 80 molecules from PMC12040169 (PLOS Biology, 2025).

The data set can be described thus: in vitro. The settings on record: human, hela cells, % viability.

Regarding `CN(C)C(=O)c1ccc(-c2cnc(OCC3CCN(C(=O)OC(C)(C)C)CC3)cn2)cc1F` [CBK175076], the viability at 28.5 h, 10 µM is 118%.
`O=C(NC(Cc1ccsc1)c1ccccn1)c1ccc(=O)[nH]c1` (centres unmarked) [CBK285272]: the viability at 28.5 h, 10 µM is 106%.
Consider `Cc1ccc(C(C)C)c(OCC(=O)n2nc(C)cc2C)c1` [CBK058196], for which the viability at 28.5 h, 10 µM came to 87.9%.
`CC1(C(=O)O)CCC(C(=O)O)C1(C)C` (centres unmarked) [CBK261830]: the viability at 28.5 h, 10 µM came to 96.1%.
As to `COC(=O)c1ccccc1NC(=O)CSc1nc(C)cc(C)n1` [CBK263818], the viability at 28.5 h, 10 µM came to 96.2%.
For the molecule `Cc1csc(Sc2nc3ccccc3nc2N2CCCC2)n1` [CBK093788], the viability at 28.5 h, 10 µM stood at 99.2%.
The same measure, in the same setting: for `COc1ccc(S(=O)(=O)Nc2nc3c(s2)C(=O)CC(C)(C)C3)cc1` [CBK095611] the value was 94.7%.
`CSC1=Nc2cc(Cl)ccc2SCC1` [CBK019829]: the viability at 28.5 h, 10 µM turned out to be 98.1%.
For `COCCn1cc(C(=O)N(CC(N)=O)C2CCCC2)c2ccccc21` [CBK305802], for the setting “bulk resorufin, single well”, the viability at 28.5 h, 10 µM is 84.1%.
As for `COc1cc([N+](=O)[O-])ccc1NC(=O)NCc1ccc(C(=O)O)cc1` [CBK267092], the viability at 28.5 h, 10 µM was 87.1%.
Same read-out and setting: for `COC(=O)c1c(NC(=S)Nc2ccccc2)sc(Cc2ccccc2)c1C` [CBK263501] the value was 90.6%; for `O=C(Cn1c(NCCCO)nc2ccccc21)c1ccco1` [CBK264099B], 94.7%; for `CCCNC(=O)Cn1cnc2sc(C)c(C)c2c1=O` [CBK305863], 88.8%.
On the same count and under the same terms, for `CCn1cc(C(=O)N2CCn3cc(C(F)(F)F)nc3C2)c(C)n1` [CBK283916] the value was 93.8%.
Same read-out and setting: for `Fc1ccc(CN2CCC3(C2)c2[nH]c4ccccc4c2CCN3Cc2ccc(F)cc2)cc1` (centres unmarked) [CBK059467] the value was 85.8%.
For the molecule `Cc1ccc2nc(-c3ccc4c(c3)CCN4S(C)(=O)=O)cn2c1` [CBK285185], the viability at 28.5 h, 10 µM worked out at 96.6%.
For `Clc1ccc(-c2ccc(N3CCN(CCN4CCCC4)CC3)nc2)cc1` [CBK037623], the viability at 28.5 h, 10 µM came out at 97.8%.
On to `O=c1c2c3c(sc2nc(SCc2nc4ccccc4[nH]2)n1Cc1ccco1)CCC3` [CBK268306], for which the viability at 28.5 h, 10 µM was determined as 104%.
Consider `CC1=C[C@@H](CC#N)[C@H](C(C)C)C[C@H]1CC(=O)Nc1ccccn1` [CBK289215], for which the viability at 28.5 h, 10 µM amounted to 87%.
As to `CN(C)CCN1CCN(c2nc(-c3ccc4c(c3)OCO4)cnc2N)CC1` [CBK063495], the viability at 28.5 h, 10 µM is 93.9%.
In the case of `CCC(C)(C)c1ccc(S(=O)(=O)Nc2ccc(F)cc2F)cc1` [CBK200039], the viability at 28.5 h, 10 µM came to 95.7%.
In the case of `Cc1nn(C)cc1S(=O)(=O)Nc1cccc(-c2ccc(F)cc2)c1` [CBK282788], the viability at 28.5 h, 10 µM came out at 103%.
With `CC(NC(=O)c1cccc(-n2cnnc2)c1)c1ccc2c(c1)CCC2` (centres unmarked) [CBK282707], the viability at 28.5 h, 10 µM was found to be 91.9%.
Turning to `CC(C)COC(=O)N1CCC(C(=O)NC(c2ccc(Cl)cc2)c2cnccn2)CC1` (centres unmarked) [CBK059668], the viability at 28.5 h, 10 µM is 99.2%.
For the molecule `Cn1c(C(=O)NC2CCOC(C)(C)C2)cc2ccccc21` (centres unmarked) [CBK304344], the viability at 28.5 h, 10 µM stood at 91.7%.
For the molecule `O=C(NC1CCNC1)c1ccc(F)cc1` (centres unmarked) [CBK281632], the viability at 28.5 h, 10 µM came out at 87.2%.
For `Cc1cc(C)cc(Cn2cc(NCc3ccccc3)c(=O)[nH]c2=O)c1` [CBK288009], the viability at 28.5 h, 10 µM was found to be 106%.
The same measure, in the same setting: the figure for `O=C(Cn1cnnn1)N1CCN(Cc2ccccc2)CC1` [CBK026053] is 85.5%.
`CCC(Cc1c[nH]c2ccccc12)NC(=N)N` (centres unmarked) [CBK010430]: the viability at 28.5 h, 10 µM was 102%.
On the same count and under the same terms, the figure for `Fc1ccc(OCCNC2CCc3[nH]c4ccccc4c3C2)cc1` (centres unmarked) [CBK107791] is 83.7%.
Regarding `COc1ccc(NCC(=O)N/N=C(\C)c2ccccc2O)cc1` [CBK263887], the viability at 28.5 h, 10 µM is 86.3%.
Consider `Cc1cc(C[C@@H]2CCC[C@H]2NCc2c(C)nn(C(C)C)c2C)on1` [CBK285453], for which the viability at 28.5 h, 10 µM is 98.3%.
With `COc1cccc(OCC(=O)Nc2ccc(Cl)cc2C(=O)O)c1` [CBK264208], the viability at 28.5 h, 10 µM was 105%.
With `COc1ccc(OC)c(-c2nc(Nc3ccc(Cl)cc3Cl)sc2CC(=O)O)c1` [CBK264175], the viability at 28.5 h, 10 µM amounted to 103%.
As for `CCNC(=O)N(C)c1c(CC)nc2ccc(C(=O)N3CCN(C(C)=O)CC3)cn12` [CBK146362], the viability at 28.5 h, 10 µM was 104%.
On the same count and under the same terms, for `Cc1ccc(-c2nnc(SCC(=O)Nc3ccc(N4CCOCC4)cc3)n2C)cc1` [CBK270247] the value was 111%; for `NS(=O)(=O)c1ccc(CNS(=O)(=O)Cc2ccccc2)cc1` [CBK228048], 87%; for `COc1cc(-c2cn3ccnc3c(NCC3CC3)n2)ccc1O` [CBK037538], 106%.
Same read-out and setting: the figure for `CS(=O)(=O)NC1CCN(C2CCc3c(Cl)cccc32)CC1` (centres unmarked) [CBK305252] is 93.7%; for `O=C(NC1CCS(=O)(=O)C1)c1cc2ccc(OC(F)(F)F)cc2[nH]1` (centres unmarked) [CBK305754] it is 92.4%.
As for `Cc1cc2ccccc2n2c(=O)n(CC(=O)N3CCC(C)CC3)nc12` [CBK283881], the viability at 28.5 h, 10 µM is 92.7%.
For `COc1ccc(NC(=O)C(=O)N/N=C/c2ccc(C(=O)O)cc2)cc1` [CBK262255], the viability at 28.5 h, 10 µM was found to be 95.5%.
With `O=C1NC(=S)N(Cc2ccccc2)C(=O)C1(CCc1ccncc1)CCc1ccncc1` [CBK269137], where the note is “bulk resorufin, single well”, the viability at 28.5 h, 10 µM came out at 106%.
Consider `N#Cc1c(NC(=O)c2cc(S(=O)(=O)N3CCCCC3)c(Cl)cc2Cl)sc2c1CCCC2` [CBK264579], for which the viability at 28.5 h, 10 µM is 104%.
Turning to `O=C(Cn1cc(Br)ccc1=O)NC1CCN(Cc2ccccn2)CC1` [CBK305686], the viability at 28.5 h, 10 µM worked out at 92.2%.
Take `CCSc1cc(Nc2nc(Cl)cc(SCC)n2)nc(N)n1` [CBK005164]: the viability at 28.5 h, 10 µM was 92.6%.
Take `CCN(CC)C(=O)N1CCN(Cc2cccc(OC)c2)C[C@@H]1C` [CBK284268]: the viability at 28.5 h, 10 µM came to 78.8%.
On the same count and under the same terms, the figure for `O=c1c2c(-c3ccc(F)cc3)csc2ncn1CC1(CO)CCOCC1` [CBK306822] is 88%.
The same measure, in the same setting: the figure for `CCN(CC)C(=O)CN1CCCN(c2nccc(OCCN3CCOCC3)n2)CC1` [CBK084094] is 99.5%; for `CN(C)c1ccc(-c2cnc3[nH]c(=O)n(C4CCCC4)c3n2)cc1` [CBK064964] it is 98%; for `Nc1ccccc1C(=O)NCc1ccncc1` [CBK057024] it is 90.1%.
The same measure, in the same setting: for `CC(=O)c1ccc(S(=O)(=O)NCc2ccc(C(F)(F)F)cc2)cc1` [CBK044314] the value was 108%; for `O=C(NCCO)c1ccc(CSc2nc3sc4c(c3c(=O)[nH]2)CCCC4)cc1` [CBK263522], 96.6%.
Consider `Cn1cncc1C(=O)N1Cc2ccccc2C1` [CBK200329], for which the viability at 28.5 h, 10 µM was 106%.
Still for that read-out and setting: the figure for `Cc1ccc2cc(CNc3ccc4c(c3)-c3ccccc3S(=O)(=O)N4)c(=O)[nH]c2c1` [CBK286163] is 70.6%; for `CS(=O)(=O)N1CCN(c2ccc(NC(=O)CSc3nc(-c4ccccc4)cs3)cc2)CC1` [CBK267934] it is 91.2%; for `COc1ccc(CNC(=O)N2CCN(c3cc(C(F)(F)F)ccn3)CC2)cc1OC` [CBK162344] it is 82.5%.
Turning to `Nc1nncn1C(=O)c1ccccc1SCc1ccccc1` [CBK270120], the viability at 28.5 h, 10 µM turned out to be 88.9%.
The same measure, in the same setting: for `CCOc1ccc(OC(=O)c2ccc(OC(F)(F)F)cc2)cc1` [CBK149207] the value was 95.8%; for `Cc1c(CN(C)C(=O)c2cccc(NC(=O)C3CCCO3)c2)cnn1C` (centres unmarked) [CBK305416], 103%.
Consider `COc1ccc([C@H]2C3CCCCC3[C@@H]2NC(=O)C2CCCO2)cc1` (some centres unmarked) [CBK282990], for which the viability at 28.5 h, 10 µM was 108%.
Still for that read-out and setting: for `CCCCN(CC)S(=O)(=O)c1ccc(-n2ncc(Cl)c(Cl)c2=O)cc1` [CBK305036] the value was 6.38%; for `CCNS(=O)(=O)c1ccc(NC(=O)Nc2ccccc2OC)cc1` [CBK270331], 87.8%; for `COCCN(CCOC)C(=O)COc1c(Cl)cc(C(=O)O)cc1Cl` [CBK296704], 92.3%.
On the same count and under the same terms, the figure for `CC(NC(=O)c1nn(-c2ccc(F)cc2)c2c1CCCC2)c1ccc2c(c1)OCCO2` (centres unmarked) [CBK296682] is 103%.
Same read-out and setting: for `O=S(=O)(Nc1ccc2cn[nH]c2c1)c1ccc(-c2ccon2)s1` [CBK067157] the value was 98.3%; for `CCn1cc(Br)c(C(=O)Nc2nccs2)n1` [CBK265890], 96.8%.
Regarding `O=C(Nc1cccc2ccccc12)N1CCC(n2c(=O)[nH]c3ccccc32)CC1` [CBK149858], the viability at 28.5 h, 10 µM was 85%.
With `Cc1ccc(NC(=O)Cn2cnc3sc(C(=O)Nc4ccccc4)c(C)c3c2=O)cc1` [CBK265931], the viability at 28.5 h, 10 µM was 101%.
For the molecule `CCCn1c(C)nnc1CN(CC1CCCO1)C1CCCC1` (centres unmarked) [CBK304465], the viability at 28.5 h, 10 µM was 94.8%.
As for `Cc1nn(C)c(C)c1CCn1cncc1-c1ccc2c(c1)CC(C)N2C` (centres unmarked) [CBK281788], the viability at 28.5 h, 10 µM came out at 76%.
In the case of `CC(C)(O)c1cc(CC2(NCc3ccc(Cl)cc3)COC2)no1` [CBK289254], the viability at 28.5 h, 10 µM came out at 80.1%.
Still for that read-out and setting: the figure for `O=C(Cc1ccc(Cl)cc1Cl)NCCc1c[nH]c2ccc(Cl)cc12` [CBK159744] is 104%; for `CC1Cc2cc(C(=O)N3CCCCC3CCN3CCCC3)ccc2O1` (centres unmarked) [CBK282094] it is 100%; for `O=C(O)CCC(=O)NCC(=O)c1ccc(F)cc1` [CBK057384] it is 76.6%.
As to `CC(=O)c1cccc(NC(=O)CN(c2cc(Cl)ccc2Cl)S(=O)(=O)c2ccc(C)cc2)c1` [CBK268897], the viability at 28.5 h, 10 µM turned out to be 90.6%.
Still for that read-out and setting: the figure for `COc1ccc(C(=O)Nc2ccccc2)cc1NC(=O)c1cc(C(F)(F)F)cc(C(F)(F)F)c1` [CBK263465] is 90%; for `C#CCNC(=O)N1CCC(c2c[nH]c3ccccc23)CC1` [CBK305034] it is 87.4%.
Regarding `Cc1ccc(-c2cc(C(=O)NCc3cnn(C)c3)c3cc(Br)ccc3n2)cc1` [CBK293959], the viability at 28.5 h, 10 µM turned out to be 89.1%.
On the same count and under the same terms, the figure for `CN1CCCN(c2ccc(NS(=O)(=O)c3ccc(F)cc3F)c3ccccc23)CC1` [CBK001499C] is 64.8%.

A word on the viability: it is a read-out of living cells in per cent, often relative to untreated cells.
